Test results: patent publication US20150030668A1 (priority 2012, published 2015)
Read-outs that look alike come from different tables or passages of the source.

Assays:
[1] = system: Mycobacterium tuberculosis; settings: NAC at 10 millimolar
[2] = rat liver, CO-60, control (water) = 0%
Excerpt: The tissue from the control animals (water) served as the 100% of the toxin remaining in the tissue. The animals receiving: • a.

[3] = system: aflatoxin B1-induced hepatic nodules or tumors; settings: mouse, in vivo; cited from earlier work

| Compound | CFU/ml reduced to [1] | removal of the toxin [2] | removal of the toxin ([2]; listed as Intravenous glutathione) | decreasing the incidence or size of hepatic nodules or tumors [3] |
| --- | --- | --- | --- | --- |
| CC(=O)N[C@@H](CS)C(=O)O [NAC, N-acetyl cysteine] | 8,000 CFU/ml |  |  |  |
| N[C@@H](CCC(=O)N[C@@H](CS)C(=O)NCC(=O)O)C(=O)O [Plain glutathione, glutathione (reduced)] |  | 10% | 70% | no benefit |
